Patent US7855290B2, “Pyridine derivatives and pyrimidine derivatives (3)” (Eisai R&D Management Co., Ltd., priority 2005, dated 2010)

Experiments:
[1] = tested on: Human gastric cancer cells (MKN-45); assay: Inhibitory activity against the proliferation of human gastric cancer cells (MKN-45); assay type: cell-based; details: 72 h, MKN-45, 1% FBS RPMI1640, 3 days, Cell Counting Kit-8
How it was run: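 MKN-45 cells seeded overnight in RPMI1640 with 1% FBS, then exposed to compound for 3 days at 37° C, 5% CO2. Viability read with CCK-8 after about 1.5 hrs, absorbance at 450 nm (reference 660 nm).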

HGFR = target: T1, HGFR (Homo sapiens, UniProt P08581); assay: Inhibitory activity against the HGFR autophosphorylation using ELISA (MKN-45 cells); assay type: cell-based; details: 1 hr with test substance
T1 construct: endogenous in cells; host or cells: MKN-45 human gastric cancer cells
T1 sequence (P08581 25-1390): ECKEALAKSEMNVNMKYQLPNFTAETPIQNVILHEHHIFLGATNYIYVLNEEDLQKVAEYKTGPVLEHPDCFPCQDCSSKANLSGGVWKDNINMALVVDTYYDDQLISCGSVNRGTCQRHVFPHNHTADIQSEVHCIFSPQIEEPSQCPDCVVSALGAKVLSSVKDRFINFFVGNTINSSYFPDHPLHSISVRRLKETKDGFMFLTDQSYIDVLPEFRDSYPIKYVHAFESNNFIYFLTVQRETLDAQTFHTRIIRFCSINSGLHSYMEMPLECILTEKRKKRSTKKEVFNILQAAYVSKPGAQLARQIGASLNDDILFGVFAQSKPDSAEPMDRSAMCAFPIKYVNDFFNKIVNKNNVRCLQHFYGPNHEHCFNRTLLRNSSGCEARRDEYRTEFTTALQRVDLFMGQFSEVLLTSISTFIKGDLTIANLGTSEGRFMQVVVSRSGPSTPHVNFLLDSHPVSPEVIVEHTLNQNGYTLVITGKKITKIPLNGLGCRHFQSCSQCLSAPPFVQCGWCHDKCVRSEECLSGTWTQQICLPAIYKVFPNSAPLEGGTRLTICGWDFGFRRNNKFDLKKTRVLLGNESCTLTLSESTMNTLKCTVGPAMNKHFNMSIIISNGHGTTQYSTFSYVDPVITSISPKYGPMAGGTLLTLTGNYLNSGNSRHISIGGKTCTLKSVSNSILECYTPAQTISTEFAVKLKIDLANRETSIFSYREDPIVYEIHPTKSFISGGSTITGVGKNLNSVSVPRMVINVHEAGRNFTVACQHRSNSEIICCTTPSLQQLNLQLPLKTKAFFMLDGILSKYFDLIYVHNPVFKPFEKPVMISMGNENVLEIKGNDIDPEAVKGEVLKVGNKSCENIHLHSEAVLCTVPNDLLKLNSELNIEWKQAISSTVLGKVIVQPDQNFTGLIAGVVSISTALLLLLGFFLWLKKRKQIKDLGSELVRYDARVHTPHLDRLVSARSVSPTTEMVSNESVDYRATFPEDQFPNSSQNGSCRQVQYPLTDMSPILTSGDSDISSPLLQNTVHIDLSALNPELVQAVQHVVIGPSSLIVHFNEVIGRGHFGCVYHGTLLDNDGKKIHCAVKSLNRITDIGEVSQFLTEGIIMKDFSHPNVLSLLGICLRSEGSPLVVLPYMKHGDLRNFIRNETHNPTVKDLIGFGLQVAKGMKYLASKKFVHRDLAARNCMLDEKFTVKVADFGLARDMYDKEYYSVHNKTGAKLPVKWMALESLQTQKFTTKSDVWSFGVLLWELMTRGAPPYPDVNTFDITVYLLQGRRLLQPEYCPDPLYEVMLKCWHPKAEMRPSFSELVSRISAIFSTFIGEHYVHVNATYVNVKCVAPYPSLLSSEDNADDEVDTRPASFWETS
How it was run: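 HGFR autophosphorylation measured by sandwich ELISA: anti-phosphotyrosine PY20 capture, anti-HGFR detection, HRP secondary, TMB read at 450 nm. Lysates came from MKN-45 cells given test substance for 1 h at 37° C in 1% FBS RPMI1640. Percent activity normalised between no-compound extract and lysis buffer alone.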

| SMILES | IC50 [1] [nM] | IC50 (HGFR) [nM] |
| --- | --- | --- |
| O=C(Nc1cc(Oc2ccc(NC(=O)C3(C(=O)Nc4ccc(F)cc4)CC3)c(F)c2)ccn1)N1CCC(O)CC1 [Example 82, N-[2-Fluoro-4-[(2-{[(4-hydroxypiperidin-1-yl)carbonyl]amino}pyridin-4-yl)oxy]phenyl}-N′-(4-fluorophenyl)cyclopropane-1,1-dicarboxamide] | 21 | 22 |
| O=C(Nc1cc(Oc2cc(F)c(NC(=O)C3(C(=O)Nc4ccc(F)cc4)CC3)cc2F)ccn1)N1CC(CN2CCC2)C1 [Example 95, N-{4-[(2-{[3-(Azetidin-1-ylmethyl)azetidin-1-ylcarbonyl]amino}pyridin-4-yl)oxy]-2,5-difluorophenyl}-N′-(4-fluorophenyl)cyclopropane-1,1-dicarboxamide] | 5.4 | 13 |
| O=C(Nc1cc(Oc2ccc(NC(=O)C3(C(=O)Nc4ccc(F)cc4)CC3)cc2F)ccn1)N1CC[C@H](O)C1 [Example 88, N-(3-Fluoro-4-{[2-({[(3S)-3-hydroxypyrrolidin-1-yl]carbonyl}amino)pyridin-4-yl]oxy}phenyl)-N′-(4-fluorophenyl)cyclopropane-1,1-dicarboxamide] | 18 | 20 |
| O=C(Nc1cc(Oc2cc(F)c(NC(=O)C3(C(=O)Nc4ccc(F)cc4)CC3)cc2F)ccn1)N1CCC1 [Example 90, N-[4-({2-[(Azetidin-1-ylcarbonyl)amino]pyridin-4-yl}oxy)-2,5-difluorophenyl]-N′-(4-fluorophenyl)cyclopropane-1,1-dicarboxamide] | 5 | 11 |
| O=C(Nc1cc(Oc2ccc(NC(=O)C3(C(=O)Nc4ccc(F)cc4)CC3)cc2F)ccn1)N1CCC(O)CC1 [Example 84, N-[3-Fluoro-4-[(2-{[(4-hydroxypiperidin-1-yl)carbonyl]amino}pyridin-4-yl)oxy]phenyl}-N′-(4-fluorophenyl)cyclopropane-1,1-dicarboxamide] | 19 | 17 |
| O=C(Nc1cc(Oc2ccc(NC(=O)C3(C(=O)Nc4ccc(F)cc4)CC3)cc2F)ccn1)N1CC(CO)C1 [Example 81, N-(3-Fluoro-4-{[2-({[3-(hydroxymethyl)azetidin-1-yl]carbonyl}amino)pyridin-4-yl]oxy}phenyl)-N′-(4-fluorophenyl)cyclopropane-1,1-dicarboxamide] | 17 | 7 |
| O=C(Nc1cc(Oc2cc(F)c(NC(=O)C3(C(=O)Nc4ccc(F)cc4)CC3)cc2F)ccn1)N1CC(CO)C1 [Example 96, N-(2,5-Difluoro-4-{[2-({[3-(hydroxymethyl)azetidin-1-yl]carbonyl}amino)pyridin-4-yl]oxy}phenyl)-N′-(4-fluorophenyl)cyclopropane-1,1-dicarboxamide] | 3.8 | 4.2 |
| CN(C)CC1CN(C(=O)Nc2cc(Oc3cc(F)c(NC(=O)C4(C(=O)Nc5ccc(F)cc5)CC4)cc3F)ncn2)C1 [Example 98, N-[4-({4-[({3-[(Dimethylamino)methyl]azetidin-1-yl}carbonyl)amino]pyrimidin-6-yl}oxy)-2,5-difluorophenyl]-N′-(4-fluorophenyl)cyclopropane-1,1-dicarboxamide] | 23 | 17 |
| O=C(Nc1cc(Oc2ccc(NC(=O)C3(C(=O)Nc4ccc(F)cc4)CC3)c(F)c2)ccn1)N1CC[C@H](O)C1 [Example 89, N-(2-Fluoro-4-{[2-({[(3S)-3-hydroxypyrrolidin-1-yl]carbonyl}amino)pyridin-4-yl]oxy}phenyl)-N′-(4-fluorophenyl)cyclopropane-1,1-dicarboxamide] | 18 | 17 |
| CN1CCN(C2CCN(C(=O)Nc3cc(Oc4cc(F)c(NC(=O)C5(C(=O)Nc6ccc(F)cc6)CC5)cc4F)ccn3)CC2)CC1 [Example 92, N-(2,5-Difluoro-4-{[2-({[4-(4-methylpiperazin-1-yl)piperidin-1-yl]carbonyl}amino)pyridin-4-yl]oxy}phenyl)-N′-(4-fluorophenyl)cyclopropane-1,1-dicarboxamide] | 4.9 | 13 |
| CN(C)CC1CN(C(=O)Nc2cc(Oc3cc(F)c(NC(=O)C4(C(=O)Nc5ccc(F)cc5)CC4)cc3F)ccn2)C1 [Example 93, N-[2,5-Difluoro-4-({2-[({3-[(dimethylamino)methyl]azetidin-1-yl]carbonyl)amino]pyridin-4-yl}oxy)phenyl]-N′-(4-fluorophenyl)cyclopropane-1,1-dicarboxamide] | 5.2 | 7 |
| O=C(Nc1cc(Oc2ccc(NC(=O)C3(C(=O)Nc4ccc(F)cc4)CC3)c(F)c2)ccn1)N1CCC(CO)CC1 [Example 83, N-(2-Fluoro-4-{[2-({[4-(hydroxymethyl)piperidin-1-yl]carbonyl}amino)pyridin-4-yl]oxy}phenyl)-N′-(4-fluorophenyl)cyclopropane-1,1-dicarboxamide] | 16 | 18 |
| O=C(Nc1cc(Oc2ccc(NC(=O)C3(C(=O)Nc4ccc(F)cc4)CC3)c(F)c2)ccn1)N1CC[C@@H](O)C1 [Example 87, N-(2-Fluoro-4-{[2-({[(3R)-3-hydroxypyrrolidin-1-yl]carbonyl}amino)pyridin-4-yl]oxy}phenyl)-N′-(4-fluorophenyl)cyclopropane-1,1-dicarboxamide] | 14 | 12 |
| O=C(Nc1cc(Oc2cc(F)c(NC(=O)C3(C(=O)Nc4ccc(F)cc4)CC3)cc2F)ncn1)N1CC(O)C1 [Example 97, N-{2,5-Difluoro-4-[(4-{[(3-hydroxyazetidin-1-yl)carbonyl]amino}pyrimidin-6-yl)oxy]phenyl}-N′-(4-fluorophenyl)cyclopropane-1,1-dicarboxamide] | 38 | 14 |
| O=C(Nc1cc(Oc2ccc(NC(=O)C3(C(=O)Nc4ccc(F)cc4)CC3)cc2F)ccn1)N1CCC(CO)CC1 [Example 85, N-(3-Fluoro-4-{[2-({[-4-(hydroxymethyl)piperidin-1-yl]carbonyl}amino)pyridin-4-yl]oxy}phenyl)-N′-(4-fluorophenyl)cyclopropane-1,1-dicarboxamide] | 15 | 14 |
| O=C(Nc1cc(Oc2ccc(NC(=O)C3(C(=O)Nc4ccc(F)cc4)CC3)cc2F)ccn1)N1CC[C@@H](O)C1 [Example 86, N-(3-Fluoro-4-{[2-({[(3R)-3-hydroxypyrrolidin-1-yl]carbonyl}amino)pyridin-4-yl]oxy}phenyl)-N′-(4-fluorophenyl)cyclopropane-1,1-dicarboxamide] | 15 | 11 |
| CN(C)CC1CCN(C(=O)Nc2cc(Oc3ccc(NC(=O)C4(C(=O)Nc5ccc(F)cc5)CC4)cc3F)ccn2)CC1 [Example 5, N-[4-({2-[({4-[(Dimethylamino)methyl]piperidin-1-yl}carbonyl)amino]pyridin-4-yl}oxy)-3-fluorophenyl]-N′-(4-fluorophenyl)cyclopropane-1,1-dicarboxamide] | 19 | 22 |
